This note sets out measurements from patent US10487116B2, “Immunotherapy against several tumors, such as lung cancer, including NSCLC” (IMMATICS BIOTECHNOLOGIES GMBH, priority 2013, dated 2019).

Like-named read-outs stand apart in the source and are kept apart here.

For the test, the system named is CD8+ T cells. Kind of test: In vitro T-cell priming assay (aAPCs loaded with peptide/MHC and anti-CD28, pMHC multimer readout). Particulars: for Wells: positive wells. It counts as cell-based, human. From the text:
In order to obtain information regarding the immunogenicity of the TUMAPs of the present invention, we performed investigations using an in vitro T-cell priming assay based on repeated stimulations of CD8+ T cells with artificial antigen presenting cells (aAPCs) loaded with peptide/MHC complexes and anti-CD28 antibody.
In order to perform in vitro stimulations by artificial antigen presenting cells loaded with peptide-MHC complex (pMHC) and anti-CD28 antibody, we first isolated CD8+ T cells from fresh HLA-A*02 leukapheresis products via positive selection using CD8 microbeads (Miltenyi Biotec, Bergisch-Gladbach, Germany) of healthy donors obtained from the Transfusion Medicine Tuebingen, Germany, after informed consent.
Isolated CD8+ lymphocytes or PBMCs were incubated until use in T-cell medium (TCM) consisting of RPMI-Glutamax (Invitrogen, Karlsruhe, Germany) supplemented with 10% heat inactivated human AB serum (PAN-Biotech, Aidenbach, Germany), 100 U/ml Penicillin/100 μg/ml Streptomycin (Cambrex, Cologne, Germany), 1 mM sodium pyruvate (CC Pro, Oberdorla, Germany), 20 μg/ml Gentamycin (Cambrex). 2.5 ng/ml IL-7 (PromoCell, Heidelberg, Germany) and 10 U/ml IL-2 (Novartis Pharma, Nurnberg, Germany) were also added to the TCM at this step.
Generation of pMHC/anti-CD28 coated beads, T-cell stimulations and readout was performed in a highly defined in vitro system using four different pMHC molecules per stimulation condition and 8 different pMHC molecules per readout condition.
All pMHC complexes used for aAPC loading and cytometric readout were derived from UV-induced MHC ligand exchange (Rodenko et al., 2006) with minor modifications. In order to determine the amount of pMHC monomer obtained by exchange we performed streptavidin-based sandwich ELISAs according to (Rodenko et al., 2006).
The purified co-stimulatory mouse IgG2a anti human CD28 Ab 9.3 (Jung et al., 1987) was chemically biotinylated using Sulfo-N-hydroxysuccinimidobiotin as recommended by the manufacturer (Perbio, Bonn, Germany). Beads used were 5.6 μm diameter streptavidin coated polystyrene particles (Bangs Laboratories, Ill., USA).
pMHC used for positive and negative control stimulations were A*0201/MLA-001 (peptide […] from modified Melan-A/MART-1) and A*0201/DDX5-001 ([…] from DDX5), respectively.
800.000 beads/200 μl were coated in 96-well plates in the presence of 4×12.5 ng different biotin-pMHC, washed and 600 ng biotin anti-CD28 were added subsequently in a volume of 200 μl. Stimulations were initiated in 96-well plates by co-incubating 1×10^6 CD8+ T cells with 2×10^5 washed coated beads in 200 μl TCM supplemented with 5 ng/ml IL-12 (PromoCell) for 3-4 days at 37° C. Half of the medium was then exchanged by fresh TCM supplemented with 80 U/ml IL-2 and incubating was continued for 3-4 days at 37° C. This stimulation cycle was performed for a total of three times. For the pMHC multimer readout using 8 different pMHC molecules per condition, a two-dimensional combinatorial coding approach was used as previously described (Andersen et al., 2012) with minor modifications encompassing coupling to 5 different fluorochromes. Finally, multimeric analyses were performed by staining the cells with Live/dead near IR dye (Invitrogen, Karlsruhe, Germany), CD8-FITC antibody clone SK1 (BD, Heidelberg, Germany) and fluorescent pMHC multimers. For analysis, a BD LSRII SORP cytometer equipped with appropriate lasers and filters was used. Peptide specific cells were calculated as percentage of total CD8+ cells. Evaluation of multimeric analysis was done using the FlowJo software (Tree Star, Oreg., USA). In vitro priming of specific multimer+CD8+ lymphocytes was detected by comparing to negative control stimulations.

[1] abbreviates: in vitro immunogenicity, trifluoro-acetate salts of the peptides.
Setting [2] is: in vitro immunogenicity, responding healthy donors, trifluoro-acetate salts of the peptides.

As for “32 (KLSWDLIYL; listed as Homo sapiens) [compound 32]”, the Wells result under setting [1] is listed as “+ (<20% = +)”. The Donors result under setting [2] is “+++ (50%-70%, +++)”.

Consider “30 (KIYNEFISV; listed as Homo sapiens) [compound 30]”, for which the Wells result under setting [1] is reported as “+ (<20% = +)”. For the same substance, under setting [2], the Donors result is “++ (20%-49% = ++)”.

Regarding “70 (KILEDVVGV; listed as Homo sapiens) [compound 70]”, under setting [1], the Wells result is listed as “+ (<20% = +)”. Further, the Donors result under setting [2] is “+++ (50%-70%, +++)”.

Consider “73 (FLLDGSANV; listed as Homo sapiens) [compound 73]”, for which, under setting [1], the Wells result is recorded as “+ (<20% = +)”. Under setting [2], the Donors result is “++ (20%-49% = ++)”.

Turning to “40 (GLTDNIHLV; listed as Homo sapiens) [compound 40]”, the Wells result under setting [1] was “+ (<20% = +)”. In addition, the Donors entry under setting [2] is “++ (20%-49% = ++)”.

With “88 (SLLESNKDLLL; listed as Homo sapiens) [compound 88]”, the Wells entry under setting [1] was “+ (<20% = +)”. In addition, under setting [2], the Donors result was “++ (20%-49% = ++)”.

On to “16 (TVIGFLLPFA; listed as Homo sapiens) [compound 16]”, for which the Wells entry under setting [1] was “+ (<20% = +)”. Further, the Donors entry under setting [2] is on record as “++ (20%-49% = ++)”.

Take “92 (HLLEDIAHV; listed as Homo sapiens) [compound 92]”: the Wells entry under setting [1] is on record as “+ (<20% = +)”. Also, the Donors entry under setting [2] is recorded as “++ (20%-49% = ++)”.

“8 (SMSGYDQVL; listed as Homo sapiens) [compound 8]”: the Wells entry under setting [1] is “+ (<20% = +)”. For the same substance, the Donors entry under setting [2] is on record as “++ (20%-49% = ++)”.

On to “62 (ILFPDIIARA; listed as Homo sapiens) [compound 62]”, for which the Wells result under setting [1] is “++ (20%-49% = ++)”. Moreover, the Donors entry under setting [2] was “++++ (>70 = ++++)”.

On to “72 (KLLTEVHAA; listed as Homo sapiens) [compound 72]”, for which the Wells entry under setting [1] is on record as “+ (<20% = +)”. Under setting [2], the Donors result is on record as “+++ (50%-70%, +++)”.

Consider “1 (ILFEINPKL; listed as Homo sapiens) [compound 1]”, for which the Wells result under setting [1] is “+ (<20% = +)”. Further, the Donors result under setting [2] is reported as “++ (20%-49% = ++)”.

As for “22 (FLIPIYHQV; listed as Homo sapiens) [compound 22]”, the Wells result under setting [1] is “+ (<20% = +)”. The Donors result under setting [2] is recorded as “+++ (50%-70%, +++)”.

Turning to “66 (KIQEILTQV; listed as Homo sapiens) [compound 66]”, the Wells result under setting [1] was “+ (<20% = +)”. In addition, the Donors entry under setting [2] is on record as “+++ (50%-70%, +++)”.

With “71 (KLLEYIEEI; listed as Homo sapiens) [compound 71]”, the Wells result under setting [1] is on record as “+ (<20% = +)”. Under setting [2], the Donors entry is “+++ (50%-70%, +++)”.

On to “33 (ALLRTVVSV; listed as Homo sapiens) [compound 33]”, for which the Wells result under setting [1] is “+ (<20% = +)”. Also, the Donors result under setting [2] is listed as “+++ (50%-70%, +++)”.

For “80 (SLFGNSGILENV; listed as Homo sapiens) [compound 80]”, the Wells entry under setting [1] is listed as “+ (<20% = +)”. For the same substance, under setting [2], the Donors result is given as “++ (20%-49% = ++)”.

Turning to “19 (AVVEFLTSV; listed as Homo sapiens) [compound 19]”, the Wells result under setting [1] is recorded as “+ (<20% = +)”. In addition, the Donors entry under setting [2] was “++ (20%-49% = ++)”.

Regarding “21 (AILDTLYEV; listed as Homo sapiens) [compound 21]”, under setting [1], the Wells result is “++ (20%-49% = ++)”. Moreover, under setting [2], the Donors result was “++ (20%-49% = ++)”.

With “45 (AIMGFIGFFV; listed as Homo sapiens) [compound 45]”, the Wells result under setting [1] is reported as “+ (<20% = +)”. The Donors entry under setting [2] was “+ (<20% = +)”.

With “78 (SLYDNQITTV; listed as Homo sapiens) [compound 78]”, the Wells entry under setting [1] is “++ (20%-49% = ++)”. For the same substance, under setting [2], the Donors result is “++ (20%-49% = ++)”.

Turning to “56 (SLYKGLLSV; listed as Homo sapiens) [compound 56]”, the Donors came out at 100%. Further, the Wells entry under setting [1] is “++ (20%-49% = ++)”. Besides, the Donors result under setting [2] was “++++ (>70 = ++++)”.
